Our source for the IC50 values is US8563542B2 (Cyclacel Limited, priority 2007, dated 2013).

A value given as a limit tells only on which side of the number the result lay.

As a reminder, the IC50 is the point on the concentration scale where inhibition reaches its midpoint.

The test deals with PLK1 (Homo sapiens, UniProt P53350). The experiment in a line: PLK1 protein kinase assay (CDC25C phosphorylation, [γ-32P]-ATP). The class given is biochemical. As to conditions: Table 2, PLK1 IC50; class symbols; read-out: PLK1 IC50.
Chain of PLK1 (P53350 whole entry): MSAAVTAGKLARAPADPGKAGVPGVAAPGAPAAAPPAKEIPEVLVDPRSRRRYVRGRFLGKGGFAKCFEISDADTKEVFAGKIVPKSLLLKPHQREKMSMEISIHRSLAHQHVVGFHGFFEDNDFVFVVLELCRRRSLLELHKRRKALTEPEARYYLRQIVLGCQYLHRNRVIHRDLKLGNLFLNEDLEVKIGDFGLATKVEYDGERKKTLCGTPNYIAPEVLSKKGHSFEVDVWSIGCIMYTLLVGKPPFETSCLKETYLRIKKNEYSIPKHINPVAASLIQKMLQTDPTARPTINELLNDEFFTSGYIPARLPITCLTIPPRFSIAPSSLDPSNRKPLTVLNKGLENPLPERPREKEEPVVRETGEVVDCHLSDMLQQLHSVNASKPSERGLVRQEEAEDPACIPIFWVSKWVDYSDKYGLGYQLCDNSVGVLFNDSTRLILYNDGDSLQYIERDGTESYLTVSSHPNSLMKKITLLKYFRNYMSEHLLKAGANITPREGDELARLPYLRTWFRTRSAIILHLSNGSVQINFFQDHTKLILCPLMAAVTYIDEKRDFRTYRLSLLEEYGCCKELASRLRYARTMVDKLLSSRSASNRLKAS
Regarding `COc1cc(C(=O)NCCCCO)ccc1Nc1ncc2c(n1)N(C1CCCC1)CC1(CC1)C(=O)N2C` [compound 185, 4-(9-Cyclopentyl-5-methyl-6-oxo-6,7,8,9-tetrahydro-5H-spiro[pyrimido[4,5-b][1,4]diazepin-3,1′-cyclopropane]-2-ylamino)- -N-(4-hydroxy-butyl)-3-methoxy-benzamide], the IC50 was less than 100 nM.
The result for `COc1cc(C(=O)NC2CCCN(C)C2)ccc1Nc1ncc2c(n1)N(C1CCCC1)CC1(CC1)C(=O)N2C` (centres unmarked) [compound 187, 4-(9-Cyclopentyl-5-methyl-6-oxo-6,7,8,9-tetrahydro-5H-spiro[pyrimido[4,5-b][1,4]diazepin-3,1-cyclopropane]-2-ylamino)-3-methoxy-N-(1-methyl-piperidin-3-yl)-benzamide] reads less than 100 nM; that for `COc1cc(C(=O)NCCO)ccc1Nc1ncc2c(n1)N(C1CCCC1)CC1(CC1)C(=O)N2C` [compound 188, 4-(9-Cyclopentyl-5-methyl-6-oxo-6,7,8,9-tetrahydro-5H-spiro[pyrimido[4,5-b][1,4]diazepin-3,1′-cyclopropane]-2-ylamino)-N-(2-hydroxy-ethyl)-3-methoxy-benzamide], less than 100 nM; that for `COc1cc(C(=O)NCCOCCO)ccc1Nc1ncc2c(n1)N(C1CCCC1)CC1(CC1)C(=O)N2C` [compound 189, 4-(9-Cyclopentyl-5-methyl-6-oxo-6,7,8,9-tetrahydro-5H-spiro[pyrimido[4,5-b][1,4]diazepin-3,1′-cyclopropane]-2-ylamino)-N-[2-(2-hydroxy-ethoxy)-ethyl]-3-methoxy-benzamide], less than 100 nM.
The figure for `CONC(=O)c1ccc(Nc2ncc3c(n2)N(C2CCCC2)CC2(CC2)C(=O)N3C)c(OC)c1` [compound 190, 4-(9-Cyclopentyl-5-methyl-6-oxo-6,7,8,9-tetrahydro-5H-spiro[pyrimido[4,5-b][1,4]diazepin-3,1′-cyclopropane]-2-ylamino)-3,N-dimethoxy-benzamide] is less than 100 nM; for `CN1C(=O)CCN(C2CCCC2)c2nc(NC(=O)c3ccccc3)ncc21` [compound 193, N-(9-Cyclopentyl-5-methyl-6-oxo-6,7,8,9-tetrahydro-5H-pyrimido[4,5-b][1,4]diazepin-2-yl)-benzamide] it is less than 10000 nM.
The result for `COc1cc(C(=O)NCC2CCN(C)CC2)ccc1Nc1ncc2c(n1)N(C1CCCC1)CC(C)(C)C(=O)N2C` [compound 196] reads less than 100 nM; that for `COc1cc(C(=O)NC2CCN(Cc3ccccc3)CC2)ccc1Nc1ncc2c(n1)N(C1CCCC1)CC(C)(C)C(=O)N2C` [compound 197, N-(1-Benzyl-piperidin-4-yl)-4-(9-cyclopentyl-5,7,7-trimethyl-6-oxo-6,7,8,9-tetrahydro-5H-pyrimido[4,5-b][1,4]diazepin-2-ylamino)-3-methoxy-benzamide], less than 100 nM.
Consider `COCCNC(=O)c1ccc(Nc2ncc3c(n2)N(C2CCCC2)CC(C)(C)C(=O)N3C)c(OC)c1` [compound 198, 4-(9-Cyclopentyl-5,7,7-trimethyl-6-oxo-6,7,8,9-tetrahydro-5H-pyrimido[4,5-b][1,4]diazepin-2-ylamino)-3-methoxy-N-(2-methoxy-ethyl)-benzamide], for which the IC50 is less than 1000 nM.
The result for `COc1cc(C(=O)NCc2ccncc2)ccc1Nc1ncc2c(n1)N(C1CCCC1)CC(C)(C)C(=O)N2C` [compound 199, 4-(9-Cyclopentyl-5,7,7-trimethyl-6-oxo-6,7,8,9-tetrahydro-5H-pyrimido[4,5-b][1,4]diazepin-2-ylamino)-3-methoxy-N-pyridin-4-yl-ylmethyl-benzamide] reads less than 100 nM; that for `COc1cc(C(=O)NCCc2c[nH]cn2)ccc1Nc1ncc2c(n1)N(C1CCCC1)CC(C)(C)C(=O)N2C` [compound 200, 4-(9-Cyclopentyl-5,7,7-trimethyl-6-oxo-6,7,8,9-tetrahydro-5H-pyrimido[4,5-b][1,4]diazepin-2-ylamino)-N-[2-(1H-imidazol-4-yl)-ethyl]-3-methoxy-benzamide], less than 100 nM; that for `COc1cc(C(=O)NCc2ccco2)ccc1Nc1ncc2c(n1)N(C1CCCC1)CC(C)(C)C(=O)N2C` [compound 201, 4-(9-Cyclopentyl-5,7,7-trimethyl-6-oxo-6,7,8,9-tetrahydro-5H-pyrimido[4,5-b][1,4]diazepin-2-ylamino)-N-furan-2-ylmethyl-3-methoxy-benzamide], less than 100 nM.
The result for `COc1cc(C(=O)NCC2CCCCN2C)ccc1Nc1ncc2c(n1)N(C1CCCC1)CCC(=O)N2C` (centres unmarked) [compound 202, 4-(9-Cyclopentyl-5-methyl-6-oxo-6,7,8,9-tetrahydro-5H-pyrimido[4,5-b][1,4]diazepin-2-ylamino)-3-methoxy-N-(1-methyl-piperidin-2-ylmethyl)-benzamide] reads less than 100 nM.
With `COc1cc(C(=O)NCCN2CCOCC2)ccc1Nc1ncc2c(n1)N(C1CCCC1)CCC(=O)N2C` [compound 203, 4-(9-Cyclopentyl-5-methyl-6-oxo-6,7,8,9-tetrahydro-5H-pyrimido[4,5-b][1,4]diazepin-2-ylamino)-3-methoxy-N-(2-morpholin-4-yl-ethyl)-benzamide], the IC50 was less than 1000 nM.
The figure for `COc1cc(C(=O)NC2CCCC2)ccc1Nc1ncc2c(n1)N(C1CCCC1)CCC(=O)N2C` [compound 204, N-Cyclopentyl-4-(9-cyclopentyl-5-methyl-6-oxo-6,7,8,9-tetrahydro-5H-pyrimido[4,5-b][1,4]diazepin-2-ylamino)-3-methoxy-benzamide] is less than 100 nM; for `COc1cc(C(=O)NCc2cccn2C)ccc1Nc1ncc2c(n1)N(C1CCCC1)CCC(=O)N2C` [compound 205, 4-(9-Cyclopentyl-5-methyl-6-oxo-6,7,8,9-tetrahydro-5H-pyrimido[4,5-b][1,4]diazepin-2-ylamino)-3-methoxy-N-(1-methyl-1H-pyrrol-2-ylmethyl)-benzamide] it is less than 100 nM.
The figure for `COc1cc(C(=O)NC2CCNCC2)ccc1Nc1ncc2c(n1)N(C1CCCC1)CCC(=O)N2C` [compound 206, 4-(9-Cyclopentyl-5-methyl-6-oxo-6,7,8,9-tetrahydro-5H-pyrimido[4,5-b][1,4]diazepin-2-ylamino)-3-methoxy-N-piperidin-4-yl-benzamide] is less than 100 nM.
The result for `COc1cc(C(=O)NC2CCN(C)CC2)ccc1Nc1ncc2c(n1)N(C1CC1)CCC(=O)N2C` [compound 207, 4-(9-Cyclopropyl-5-methyl-6-oxo-6,7,8,9-tetrahydro-5H-pyrimido[4,5-b][1,4]diazepin-2-ylamino)-3-methoxy-N-(1-methyl-piperidin-4-yl)-benzamide] reads less than 10000 nM; that for `COc1cc(C(=O)NC2CCN(C)CC2)ccc1Nc1ncc2c(n1)N(CCO)CCC(=O)N2C` [compound 208, 4-[9-(2-Hydroxy-ethyl)-5-methyl-6-oxo-6,7,8,9-tetrahydro-5H-pyrimido[4,5-b][1,4]diazepin-2-ylamino]-3-methoxy-N-(1-methyl-piperidin-4-yl)-benzamide], less than 1000 nM.
For the compound `COc1cc(C(=O)NC2CCN(S(C)(=O)=O)CC2)ccc1Nc1ncc2c(n1)N(C1CCCC1)CCC(=O)N2C` [compound 209, 4-(9-Cyclopentyl-5-methyl-6-oxo-6,7,8,9-tetrahydro-5H-pyrimido[4,5-b][1,4]diazepin-2-ylamino)-N-(1-methanesulfonyl-piperidin-4-yl)-3-methoxy-benzamide], the IC50 was less than 1000 nM.
